Laboratory results taken from patent US12325697B2 (Nimbus Clio, Inc., priority 2021, dated 2025).

Key:
[1] = biological target: Recombinant human Cbl-b (aa 36-427) (Homo sapiens (Human), UniProt Q13191); test: Cbl-b Biochemical Assay (TR-FRET); conditions: read-out: TR-FRET hCbl-b IC50
Summary of the method: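 Two-step TR-FRET: 6 nM biotinylated Cbl-b preincubated 30-60 min with compound, then 60 min at RT with 1-2.5 nM Src-Zap70 and 0.5 mM ATP in HEPES pH 7.0 buffer, 1% DMSO. Stopped with 5 mM EDTA plus 100 nM UBE2D2-Ub-FL-BODIPY and 1 nM streptavidin-Tb, 60 min; 520 nm signal; IC50 from 4-parameter fit.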

[2] = biological target: Recombinant human c-Cbl (aa 47-435) (Homo sapiens (Human), UniProt P22681); test: c-Cbl Biochemical Assay (TR-FRET)
Recombinant human c-Cbl (aa 47-435), sequence (P22681 47-435): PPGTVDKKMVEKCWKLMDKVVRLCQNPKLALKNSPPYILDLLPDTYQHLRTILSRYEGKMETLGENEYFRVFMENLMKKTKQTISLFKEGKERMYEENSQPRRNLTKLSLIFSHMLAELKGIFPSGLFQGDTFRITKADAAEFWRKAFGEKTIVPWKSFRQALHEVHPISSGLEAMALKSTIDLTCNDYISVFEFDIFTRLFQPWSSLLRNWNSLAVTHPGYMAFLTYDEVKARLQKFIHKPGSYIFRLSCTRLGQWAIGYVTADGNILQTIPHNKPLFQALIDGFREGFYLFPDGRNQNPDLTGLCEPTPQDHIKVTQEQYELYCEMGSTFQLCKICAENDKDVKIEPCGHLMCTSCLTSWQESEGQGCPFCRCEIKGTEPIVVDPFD
Summary of the method: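 Biotinylated c-Cbl (6 nM) preincubated 30 min RT with compound, then reacted 60-90 min with Src-Zap70 (2.5-10 nM) and 0.5 mM ATP, pH 7.0 HEPES buffer. Stopped with EDTA; 100 nM Bodipy-ubiquitinated UBE2D2 binding read by TR-FRET after 60 min; IC50 from 4-parameter fit.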

Recombinant human Cbl-b (aa 36-427), sequence (Q13191 36-427): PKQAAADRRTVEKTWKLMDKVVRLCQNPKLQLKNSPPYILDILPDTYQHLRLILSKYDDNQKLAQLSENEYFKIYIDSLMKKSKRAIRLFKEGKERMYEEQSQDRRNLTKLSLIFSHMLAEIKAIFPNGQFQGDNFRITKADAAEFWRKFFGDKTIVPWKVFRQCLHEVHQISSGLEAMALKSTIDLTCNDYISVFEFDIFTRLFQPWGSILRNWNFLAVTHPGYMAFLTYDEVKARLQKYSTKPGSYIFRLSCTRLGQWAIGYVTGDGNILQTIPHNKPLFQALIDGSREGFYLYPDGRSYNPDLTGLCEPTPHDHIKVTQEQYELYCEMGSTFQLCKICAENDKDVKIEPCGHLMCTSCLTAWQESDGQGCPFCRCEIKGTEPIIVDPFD

Row | Structure (SMILES) | IC50 [1] [µM] | IC50 [2] [µM]
1 | Cn1cnnc1-c1cc(C#N)ccc1-c1cc(C2CC2)nc(N2Cc3c(F)cc(CN4CCC[C@](C)(O)C4)cc3C2=O)c1 [AMR-2, 4-[2-Cyclopropyl-6-(4-fluoro-6-{[(3S)-3-hydroxy-3-methylpiperidin-1-yl]methyl}-1-oxo-3H-isoindol-2-yl)pyridin-4-yl]-3-(4-methyl-1,2,4-triazol-3-yl)benzonitrile] | ≤ 0.2 | ≤ 0.2
2 | Cn1cnnc1-c1ccccc1-c1cc(N2Cc3c(cccc3C(F)(F)F)C2=O)cc2cc[nH]c12 [AHY-5, 2-{7-[2-(4-Methyl-1,2,4-triazol-3-yl)phenyl]-1H-indol-5-yl}-4-(trifluoromethyl)-3H-isoindol-1-one] | 10 to 50 | 10 to 50
3 | COC[C@H]1CCN1Cc1cc(F)c2c(c1)C(=O)N(c1cc(-c3ccc(C#N)cc3-c3nncn3C)cc(C3CC3)n1)C2 [AOW-2, 4-[2-Cyclopropyl-6-(4-fluoro-6-{[(2R)-2-(methoxymethyl)azetidin-1-yl]methyl}-1-oxo-3H-isoindol-2-yl)pyridin-4-yl]-3-(4-methyl-1,2,4-triazol-3-yl)benzonitrile] | ≤ 0.2 | ≤ 0.2
4 | CO[C@@H](C)[C@H](C)NCc1cc(F)c2c(c1)C(=O)N(c1cc(-c3ccc(C#N)cc3-c3nncn3C)cc(C3CC3)n1)C2 [AMD-2, 4-{2-Cyclopropyl-6-[4-fluoro-6-({[(2S,3S)-3-methoxybutan-2-yl]amino}methyl)-1-oxo-3H-isoindol-2-yl]pyridin-4-yl}-3-(4-methyl-1,2,4-triazol-3-yl)benzonitrile] | ≤ 0.2 | ≤ 0.2
5 | CN(C)C(=O)CN(Cc1ccc2c(c1)C(=O)N(c1cc(-c3ccc(C#N)cc3-c3nncn3C)cc(C3CC3)n1)C2)CC1COC1 [AON-2, 2-{[(2-{4-[4-Cyano-2-(4-methyl-1,2,4-triazol-3-yl)phenyl]-6-cyclopropylpyridin-2-yl}-3-oxo-1H-isoindol-5-yl)methyl](oxetan-3-ylmethyl)amino}-N,N-dimethylacetamide] | ≤ 0.2 | ≤ 0.2
6 | Cn1cnnc1-c1cc(C#N)ccc1-c1cc(C2CC2)nc(N2Cc3ccc(CN4CCC5(CC5)C4)cc3C2=O)c1 [AND-1, 4-[2-(6-{5-Azaspiro[2.4]heptan-5-ylmethyl}-1-oxo-3H-isoindol-2-yl)-6-cyclopropylpyridin-4-yl]-3-(4-methyl-1,2,4-triazol-3-yl)benzonitrile] | ≤ 0.2 | ≤ 0.2
7 | Cn1cnnc1-c1cc(C#N)ccc1-c1cc(C2CC2)nc(N2Cc3c(F)cc(CN4CC[C@@H]5OCC[C@@H]54)cc3C2=O)c1 (single isomer, unassigned) [ANG-1] | ≤ 0.2 | ≤ 0.2
8 | COCCOCc1ccc2c(c1)C(=O)N(c1cc(-c3ccc(C#N)cc3-c3nncn3C)cc(C3CC3)n1)C2 [AIQ-2, 4-(2-Cyclopropyl-6-(6-((2-methoxyethoxy)methyl)-1-oxoisoindolin-2-yl)pyridin-4-yl)-3-(4-methyl-4H-1,2,4-triazol-3-yl)benzonitrile] | ≤ 0.2 | ≤ 0.2
9 | Cn1cnnc1-c1cc(C#N)ccc1-c1cc(C2CC2)nc(N2Cc3cc(Cl)c(CO)cc3C2=O)c1 [AKN-12, 4-{2-[5-Chloro-6-(hydroxymethyl)-1-oxo-3H-isoindol-2-yl]-6-cyclopropylpyridin-4-yl}-3-(4-methyl-1,2,4-triazol-3-yl)benzonitrile] | ≤ 0.2 | ≤ 0.2
10 | Cn1cnnc1-c1cc(C#N)ccc1-c1cc(C2CC2)nc(N2Cc3ccc([C@H]4COC[C@@H](C5CCC5)N4)cc3C2=O)c1 (stereo in doubt) [AOP-4, rac-4-(2-{6-[(3R,5S)-5-Cyclobutylmorpholin-3-yl]-1-oxo-3H-isoindol-2-yl}-6-cyclopropylpyridin-4-yl)-3-(4-methyl-1,2,4-triazol-3-yl)benzonitrile] | ≤ 0.2 | ≤ 0.2
11 | Cn1cnnc1-c1cc(C#N)ccc1-c1cc(C2CC2)nc(N2Cc3ccc(CNC(C)(C)C4CCC4)cc3C2=O)c1 [AOM-2, 4-[2-(6-{[(2-Cyclobutylpropan-2-yl)amino]methyl}-1-oxo-3H-isoindol-2-yl)-6-cyclopropylpyridin-4-yl]-3-(4-methyl-1,2,4-triazol-3-yl)benzonitrile] | ≤ 0.2 | ≤ 0.2
12 | Cn1cnnc1-c1cc(C#N)ccc1-c1cc(C2CC2)nc(N2Cc3ccc(CO)cc3C2=O)c1 [AHV-1, 4-{2-Cyclopropyl-6-[6-(hydroxymethyl)-1-oxo-3H-isoindol-2-yl]pyridin-4-yl}-3-(4-methyl-1,2,4-triazol-3-yl)benzonitrile] | ≤ 0.2 | ≤ 0.2
13 | Cn1cnnc1-c1cnn(C)c1-c1cc(C2CC2)nc(N2Cc3c(cc(CO)cc3C(F)(F)F)C2=O)c1 [AKI-1, 2-{6-Cyclopropyl-4-[2-methyl-4-(4-methyl-1,2,4-triazol-3-yl)pyrazol-3-yl]pyridin-2-yl}-6-(hydroxymethyl)-4-(trifluoromethyl)-3H-isoindol-1-one] | ≤ 0.2 | ≤ 0.2
14 | CO[C@H](C)[C@@H](C)NCc1cc(F)c2c(c1)C(=O)N(c1cc(-c3ccc(C#N)cc3-c3nncn3C)cc(C3CC3)n1)C2 [ALC-2, 4-{2-Cyclopropyl-6-[4-fluoro-6-({[(2R,3R)-3-methoxybutan-2-yl]amino}methyl)-1-oxo-3H-isoindol-2-yl]pyridin-4-yl}-3-(4-methyl-1,2,4-triazol-3-yl)benzonitrile] | ≤ 0.2 | ≤ 0.2
15 | Cn1cnnc1-c1cc(C#N)ccc1-c1cc(C2CC2)nc(N2Cc3ccc(CNCC4(F)CCC4)cc3C2=O)c1 [AJX-1, 4-{2-Cyclopropyl-6-[6-({[(1-fluorocyclobutyl)methyl]amino}methyl)-1-oxo-3H-isoindol-2-yl]pyridin-4-yl}-3-(4-methyl-1,2,4-triazol-3-yl)benzonitrile] | ≤ 0.2 | ≤ 0.2
16 | CO[C@H](C)CNCc1ccc2c(c1)C(=O)N(c1cc(-c3ccc(C#N)cc3-c3nncn3C)cc(C3CC3)n1)C2 [AID-2, 4-{2-Cyclopropyl-6-[6-({[(2R)-2-methoxypropyl]amino}methyl)-1-oxo-3H-isoindol-2-yl]pyridin-4-yl}-3-(4-methyl-1,2,4-triazol-3-yl)benzonitrile] | ≤ 0.2 | ≤ 0.2
17 | COCCNCc1cc2c(cc1F)CN(c1cc(-c3ccc(C#N)cc3-c3nncn3C)cc(C3CC3)n1)C2=O [AIH-2, 4-(2-Cyclopropyl-6-(5-fluoro-6-(((2-methoxyethyl)amino)methyl)-1-oxoisoindolin-2-yl)pyridin-4-yl)-3-(4-methyl-4H-1,2,4-triazol-3-yl)benzonitrile] | ≤ 0.2 | ≤ 0.2
18 | Cn1cnnc1-c1cc(C#N)ccc1-c1cc(C2CC2)nc(N2Cc3ccc(CNC4CCOCC4)cc3C2=O)c1 [AMO-2, 4-(2-Cyclopropyl-6-{6-[(oxan-4-ylamino)methyl]-1-oxo-3H-isoindol-2-yl}pyridin-4-yl)-3-(4-methyl-1,2,4-triazol-3-yl)benzonitrile] | ≤ 0.2 | ≤ 0.2
19 | COCCNCc1ccc2c(c1)C(=O)N(c1cccc(-c3ccc(C#N)cc3-c3nncn3C)c1)C2 [AJF-1, 3′-(6-(((2-Methoxyethyl)amino)methyl)-1-oxoisoindolin-2-yl)-2-(4-methyl-4H-1,2,4-triazol-3-yl)-[1,1′-biphenyl]-4-carbonitrile] | ≤ 0.2 | ≤ 0.2
20 | CCOc1cc(-c2ccc(F)cc2-c2nncn2C)cc(N2Cc3c(OC)cc(CN(C)CC4(O)CCC4)cc3C2=O)n1 [AJO-2, 2-(6-Ethoxy-4-(4-fluoro-2-(4-methyl-4H-1,2,4-triazol-3-yl)phenyl)pyridin-2-yl)-6-((((1-hydroxycyclobutyl)methyl)(methyl)amino)methyl)-4-methoxyisoindolin-1-one] | ≤ 0.2 | ≤ 0.2
21 | CN(Cc1ccc2c(c1)C(=O)N(c1cc(-c3ccc(C#N)cc3-c3nncn3C)cc(C3CC3)n1)C2)CC1COC1 [ANX-2, 4-[2-Cyclopropyl-6-(6-{[methyl(oxetan-3-ylmethyl)amino]methyl}-1-oxo-3H-isoindol-2-yl)pyridin-4-yl]-3-(4-methyl-1,2,4-triazol-3-yl)benzonitrile] | ≤ 0.2 | ≤ 0.2
22 | Cn1cnnc1-c1cc(C#N)ccc1-c1cc(C2CC2)nc(N2Cc3ccc(CN4CCOC5(COC5)C4)cc3C2=O)c1 [AOO-2, 4-[2-Cyclopropyl-6-(6-{2,5-dioxa-8-azaspiro[3.5]nonan-8-ylmethyl}-1-oxo-3H-isoindol-2-yl)pyridin-4-yl]-3-(4-methyl-1,2,4-triazol-3-yl)benzonitrile] | ≤ 0.2 | ≤ 0.2
23 | COCCNCc1cc(F)c2c(c1)C(=O)N(c1cc(-c3ccc(C#N)cc3-c3nncn3C)cc(C3CC3)n1)C2 [AIO-9, 4-[2-Cyclopropyl-6-(4-fluoro-6-{[(2-methoxyethyl)amino]methyl}-1-oxo-3H-isoindol-2-yl)pyridin-4-yl]-3-(4-methyl-1,2,4-triazol-3-yl)benzonitrile] | ≤ 0.2 | ≤ 0.2
24 | CN(Cc1ccc2c(c1)C(=O)N(c1cc(-c3ccc(F)cc3-c3nncn3C)cc(C3CC3)n1)C2)CC1(O)CCC1 [AJS-1, 2-(6-Cyclopropyl-4-(4-fluoro-2-(4-methyl-4H-1,2,4-triazol-3-yl)phenyl)pyridin-2-yl)-6-((((1-hydroxycyclobutyl)methyl) (methyl)amino)methyl)isoindolin-1-one] | ≤ 0.2 | ≤ 0.2
25 | Cn1cnnc1-c1cc(C#N)ccc1-c1cc(C2CC2)nc(N2Cc3c(cc(CNCC4COC4)c(F)c3F)C2=O)c1 [ANE-1, 4-[2-Cyclopropyl-6-(4,5-difluoro-6-{[(oxetan-3-ylmethyl)amino]methyl}-1-oxo-3H-isoindol-2-yl)pyridin-4-yl]-3-(4-methyl-1,2,4-triazol-3-yl)benzonitrile] | ≤ 0.2 | ≤ 0.2
